This note sets out measurements from US20230040909A1 (priority 2019, published 2023).

≈ marks a conversion by molar mass, not a printed value.

The test system of one series is M. tb H37Rv. As to the kind of experiment: microbe, parasite or virus in culture. Format: cell-based, Mycobacterium tuberculosis. The note with it: Mycobacterium tuberculosis, H37RV; read-out: M. tb H37Rv: MIC-MABA.
Take `C[Si]1(C)CCC(NC(=O)c2cc3c(F)cc(F)cc3[nH]2)C1` (stereo not shown) [MPL-400, N-(1,1-dimethylsilolan-3-yl)-4,6-difluoro-1H-indole-2-carboxamide]: the MIC was found to be 0.0113 µg/mL (≈ 0.0366 µM).
The same measure, in the same setting: under `Cc1cc(F)c2cc(C(=O)NC3CC[Si](C)(C)CC3)[nH]c2c1` [MPL-470, N-(1,1-dimethylsilinan-4-yl)-4-fluoro-6-methyl-1H-indole-2-carboxamide] stands 0.007 µg/mL (≈ 0.022 µM).

The next series deals with hERG (Homo sapiens, UniProt Q12809). Description: biochemical. The note with it: hERG IC50, Table 2. For orientation: hERG is a cardiac potassium channel; its block is linked to QT prolongation.
hERG, sequence (Q12809 whole entry): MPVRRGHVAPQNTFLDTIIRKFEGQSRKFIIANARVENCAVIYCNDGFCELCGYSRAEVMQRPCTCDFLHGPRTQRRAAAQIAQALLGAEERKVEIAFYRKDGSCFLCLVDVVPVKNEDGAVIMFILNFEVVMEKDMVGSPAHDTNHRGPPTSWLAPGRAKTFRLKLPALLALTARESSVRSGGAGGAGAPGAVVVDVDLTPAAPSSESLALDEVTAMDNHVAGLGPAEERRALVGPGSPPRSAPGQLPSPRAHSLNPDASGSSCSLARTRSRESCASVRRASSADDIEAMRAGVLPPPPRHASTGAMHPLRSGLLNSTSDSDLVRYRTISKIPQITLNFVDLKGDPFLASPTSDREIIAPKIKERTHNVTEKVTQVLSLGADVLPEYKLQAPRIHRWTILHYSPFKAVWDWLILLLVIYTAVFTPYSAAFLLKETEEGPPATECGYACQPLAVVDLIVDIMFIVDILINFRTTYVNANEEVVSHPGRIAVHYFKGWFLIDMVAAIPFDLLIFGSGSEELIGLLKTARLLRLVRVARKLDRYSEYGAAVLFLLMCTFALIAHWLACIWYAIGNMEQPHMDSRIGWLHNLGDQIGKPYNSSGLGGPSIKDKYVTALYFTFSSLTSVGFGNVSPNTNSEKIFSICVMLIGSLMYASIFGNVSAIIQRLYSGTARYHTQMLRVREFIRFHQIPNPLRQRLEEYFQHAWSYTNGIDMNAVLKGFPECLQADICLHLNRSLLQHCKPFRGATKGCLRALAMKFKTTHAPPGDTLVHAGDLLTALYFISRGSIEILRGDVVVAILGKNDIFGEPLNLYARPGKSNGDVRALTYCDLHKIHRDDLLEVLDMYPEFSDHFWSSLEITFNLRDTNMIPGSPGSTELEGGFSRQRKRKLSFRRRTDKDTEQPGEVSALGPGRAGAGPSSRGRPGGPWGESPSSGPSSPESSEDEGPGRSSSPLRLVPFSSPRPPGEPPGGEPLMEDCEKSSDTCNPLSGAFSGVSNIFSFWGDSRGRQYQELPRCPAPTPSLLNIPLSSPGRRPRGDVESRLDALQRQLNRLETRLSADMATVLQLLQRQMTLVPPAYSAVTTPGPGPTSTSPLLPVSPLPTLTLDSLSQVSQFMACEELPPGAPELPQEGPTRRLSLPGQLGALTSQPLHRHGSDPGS
Consider `C[C@@H]1C(NC(=O)c2cc3c(F)cc(F)cc3[nH]2)CC2C[C@@H]1C2(C)C` (stereo partly shown) [JS-2-02], for which the IC50 was over 10 µM.
Still for that read-out and setting: with `CC1(C)CCC(NC(=O)c2cc3c(Cl)cc(Cl)cc3[nH]2)CC1` [NITD-304] the figure was over 10 µM; with `CC1(C)CCC(NC(=O)c2cc3c(F)cc(F)cc3[nH]2)CC1` [NITD-349], over 10 µM.

The series is the same for the next values; noted with them: hERG IC50, Table 3.
`CC1(C)CCC(NC(=O)c2cc3c(Cl)cc(Cl)cc3[nH]2)CC1` [NITD-304] yielded an IC50 of over 10 µM.
Still for that read-out and setting: with `CC1(C)CCC(NC(=O)c2cc3c(F)cc(F)cc3[nH]2)CC1` [NITD-349] the figure was over 10 µM.

Staying with this series, now noted: hERG IC50, stated in text.
As to `CC1(C)CCC(NC(=O)c2cc3c(Cl)cc(Cl)cc3[nH]2)CC1` [NITD-304], the IC50 is over 50 µM.
The same measure, in the same setting: with `CC1(C)CCC(NC(=O)c2cc3c(F)cc(F)cc3[nH]2)CC1` [NITD-349] the figure was over 50 µM.

Tested on in a further series: not listed separately
As to the kind of experiment: VERO cell cytotoxicity. It counts as cell-based. The note with it: African green monkey, VERO cells. An excerpt:
The procedures described in Falzari 2005 were used to generate the data shown in column 2 of Table 4.
As to `C[Si]1(C)CCC(NC(=O)c2cc3c(F)cc(F)cc3[nH]2)C1` (stereo not shown) [MPL-400, N-(1,1-dimethylsilolan-3-yl)-4,6-difluoro-1H-indole-2-carboxamide], the IC50 is over 20 µg/mL.
The same measure, in the same setting: under `Cc1cc(F)c2cc(C(=O)NC3CC[Si](C)(C)CC3)[nH]c2c1` [MPL-470, N-(1,1-dimethylsilinan-4-yl)-4-fluoro-6-methyl-1H-indole-2-carboxamide] stands over 20 µg/mL.

Tested on in another series: not listed separately
As to the kind of experiment: QTc (QTcV) prolongation in dogs after oral dosing, with plasma level at 1 hr. The note with it: dog, plasma, po, 50 mg/kg.
`C[C@@H]1C(NC(=O)c2cc3c(F)cc(F)cc3[nH]2)CC2C[C@@H]1C2(C)C` (stereo partly shown) [JS-2-02] had a concentration at 1 h of 1200 ng/mL.

Staying with this series, now noted: dog, plasma, po, 150 mg/kg.
`CC1(C)CCC(NC(=O)c2cc3c(Cl)cc(Cl)cc3[nH]2)CC1` [NITD-304] displayed a concentration at 1 h of 300 ng/mL.

Staying with this series, now noted: dogs.
For the compound `CC1(C)CCC(NC(=O)c2cc3c(Cl)cc(Cl)cc3[nH]2)CC1` [NITD-304], the “corrected QT (QTc) prolongation in dogs” value is on record as “dramatic corrected QT (QTc) prolongation”.
Still for that read-out and setting: under `CC1(C)CCC(NC(=O)c2cc3c(F)cc(F)cc3[nH]2)CC1` [NITD-349] stands “dramatic corrected QT (QTc) prolongation”.

The series is the same for the next values; noted with them: dogs, 50 mg/kg, PO.
Take `C[C@@H]1C(NC(=O)c2cc3c(F)cc(F)cc3[nH]2)CC2C[C@@H]1C2(C)C` (stereo partly shown) [JS-2-02]: the “Max. QTcv” value came out at 6.8 ms.
Still for that read-out and setting: with `CC1(C)CCC(NC(=O)c2cc3c(Cl)cc(Cl)cc3[nH]2)CC1` [NITD-304] the figure was 49 ms; with `CC1(C)CCC(NC(=O)c2cc3c(F)cc(F)cc3[nH]2)CC1` [NITD-349], 170 ms.

The series is the same for the next values; noted with them: dogs, 50 mg/kg, PO, 1 hr.
`C[C@@H]1C(NC(=O)c2cc3c(F)cc(F)cc3[nH]2)CC2C[C@@H]1C2(C)C` (stereo partly shown) [JS-2-02]: the “QTcV @ 1 hr” value was 1.2 ms.
`CC1(C)CCC(NC(=O)c2cc3c(Cl)cc(Cl)cc3[nH]2)CC1` [NITD-304]: the C1 hr came to 250 ng/mL and the “QTcV @ 1 hr” value was -0.6 ms.
The like results for `CC1(C)CCC(NC(=O)c2cc3c(F)cc(F)cc3[nH]2)CC1` [NITD-349] were, in that order, 790 ng/mL and 11 ms.

The series is the same for the next values; noted with them: dogs, 150 mg/kg, PO.
`C[C@@H]1C(NC(=O)c2cc3c(F)cc(F)cc3[nH]2)CC2C[C@@H]1C2(C)C` (stereo partly shown) [JS-2-02]: the “Max. QTcv” value was found to be 37 ms.
Same read-out and setting: under `CC1(C)CCC(NC(=O)c2cc3c(Cl)cc(Cl)cc3[nH]2)CC1` [NITD-304] stands 120 ms; under `CC1(C)CCC(NC(=O)c2cc3c(F)cc(F)cc3[nH]2)CC1` [NITD-349], 170 ms.

The same series, now with this note: dogs, 150 mg/kg, PO, 1 hr.
For the compound `C[C@@H]1C(NC(=O)c2cc3c(F)cc(F)cc3[nH]2)CC2C[C@@H]1C2(C)C` (stereo partly shown) [JS-2-02], the C1 hr was 1100 ng/mL and the “QTcV @ 1 hr” value is listed as 2.8 ms.
For `CC1(C)CCC(NC(=O)c2cc3c(Cl)cc(Cl)cc3[nH]2)CC1` [NITD-304], the “QTcV @ 1 hr” value is 0.3 ms.
Take `CC1(C)CCC(NC(=O)c2cc3c(F)cc(F)cc3[nH]2)CC1` [NITD-349]: the “QTcV @ 1 hr” value came out at 13.6 ms.

The target of the next series is hCav1.2 (Homo sapiens, UniProt Q13936). As to the kind of experiment: biochemical. The note with it: Table 2.
hCav1.2, sequence (Q13936 whole entry): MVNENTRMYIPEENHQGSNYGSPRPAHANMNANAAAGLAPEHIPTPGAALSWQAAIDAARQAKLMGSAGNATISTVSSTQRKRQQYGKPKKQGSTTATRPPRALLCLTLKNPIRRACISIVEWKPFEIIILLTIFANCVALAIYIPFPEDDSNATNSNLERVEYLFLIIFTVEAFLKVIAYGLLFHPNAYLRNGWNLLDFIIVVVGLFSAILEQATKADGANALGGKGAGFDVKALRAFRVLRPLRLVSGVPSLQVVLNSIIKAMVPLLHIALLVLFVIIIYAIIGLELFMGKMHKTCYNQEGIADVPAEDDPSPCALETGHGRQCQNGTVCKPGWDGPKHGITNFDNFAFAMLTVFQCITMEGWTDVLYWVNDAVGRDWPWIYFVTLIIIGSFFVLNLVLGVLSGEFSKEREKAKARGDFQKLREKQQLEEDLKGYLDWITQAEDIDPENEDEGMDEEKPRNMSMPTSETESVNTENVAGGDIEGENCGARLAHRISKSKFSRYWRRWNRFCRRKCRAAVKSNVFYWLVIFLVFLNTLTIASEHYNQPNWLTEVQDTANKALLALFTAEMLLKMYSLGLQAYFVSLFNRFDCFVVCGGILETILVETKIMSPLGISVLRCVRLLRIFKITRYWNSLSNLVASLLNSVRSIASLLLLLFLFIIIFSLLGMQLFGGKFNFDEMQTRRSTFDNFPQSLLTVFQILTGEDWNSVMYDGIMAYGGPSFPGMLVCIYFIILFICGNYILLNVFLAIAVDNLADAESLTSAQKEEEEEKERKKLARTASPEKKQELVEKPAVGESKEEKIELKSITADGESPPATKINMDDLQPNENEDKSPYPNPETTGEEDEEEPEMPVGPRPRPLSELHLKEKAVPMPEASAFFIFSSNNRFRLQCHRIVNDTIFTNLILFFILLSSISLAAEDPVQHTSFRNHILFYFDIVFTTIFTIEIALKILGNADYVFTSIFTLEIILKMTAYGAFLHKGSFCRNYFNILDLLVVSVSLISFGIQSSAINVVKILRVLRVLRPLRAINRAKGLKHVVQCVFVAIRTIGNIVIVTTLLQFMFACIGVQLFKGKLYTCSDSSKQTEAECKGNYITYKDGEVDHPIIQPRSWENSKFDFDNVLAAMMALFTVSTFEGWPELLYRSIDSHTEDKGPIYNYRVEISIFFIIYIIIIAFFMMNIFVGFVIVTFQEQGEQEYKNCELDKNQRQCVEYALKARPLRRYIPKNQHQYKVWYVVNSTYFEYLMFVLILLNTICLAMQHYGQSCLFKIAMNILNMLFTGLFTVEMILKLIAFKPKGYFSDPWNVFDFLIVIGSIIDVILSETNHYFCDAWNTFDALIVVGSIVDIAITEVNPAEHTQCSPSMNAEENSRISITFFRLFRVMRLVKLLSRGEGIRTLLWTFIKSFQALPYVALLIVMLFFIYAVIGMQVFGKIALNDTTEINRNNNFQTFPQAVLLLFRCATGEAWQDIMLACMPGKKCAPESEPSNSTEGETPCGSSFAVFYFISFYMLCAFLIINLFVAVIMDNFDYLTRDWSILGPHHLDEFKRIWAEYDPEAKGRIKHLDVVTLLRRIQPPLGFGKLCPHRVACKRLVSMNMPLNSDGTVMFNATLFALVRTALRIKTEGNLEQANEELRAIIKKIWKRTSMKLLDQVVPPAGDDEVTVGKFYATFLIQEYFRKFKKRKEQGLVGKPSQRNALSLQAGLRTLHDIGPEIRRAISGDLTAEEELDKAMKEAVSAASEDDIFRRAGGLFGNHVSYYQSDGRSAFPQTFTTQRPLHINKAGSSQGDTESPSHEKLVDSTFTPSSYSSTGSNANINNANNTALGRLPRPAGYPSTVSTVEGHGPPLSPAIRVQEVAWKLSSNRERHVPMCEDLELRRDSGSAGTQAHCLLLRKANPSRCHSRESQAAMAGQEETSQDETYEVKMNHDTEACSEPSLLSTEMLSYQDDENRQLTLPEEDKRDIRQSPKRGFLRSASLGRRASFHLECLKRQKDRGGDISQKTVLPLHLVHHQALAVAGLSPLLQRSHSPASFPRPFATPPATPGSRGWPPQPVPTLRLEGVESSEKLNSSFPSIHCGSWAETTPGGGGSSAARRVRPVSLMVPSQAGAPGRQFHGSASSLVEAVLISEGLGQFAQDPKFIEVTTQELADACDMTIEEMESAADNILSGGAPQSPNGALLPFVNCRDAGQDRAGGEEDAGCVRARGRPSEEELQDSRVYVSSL
hCav1.2, sequence (Q08289 whole entry partner): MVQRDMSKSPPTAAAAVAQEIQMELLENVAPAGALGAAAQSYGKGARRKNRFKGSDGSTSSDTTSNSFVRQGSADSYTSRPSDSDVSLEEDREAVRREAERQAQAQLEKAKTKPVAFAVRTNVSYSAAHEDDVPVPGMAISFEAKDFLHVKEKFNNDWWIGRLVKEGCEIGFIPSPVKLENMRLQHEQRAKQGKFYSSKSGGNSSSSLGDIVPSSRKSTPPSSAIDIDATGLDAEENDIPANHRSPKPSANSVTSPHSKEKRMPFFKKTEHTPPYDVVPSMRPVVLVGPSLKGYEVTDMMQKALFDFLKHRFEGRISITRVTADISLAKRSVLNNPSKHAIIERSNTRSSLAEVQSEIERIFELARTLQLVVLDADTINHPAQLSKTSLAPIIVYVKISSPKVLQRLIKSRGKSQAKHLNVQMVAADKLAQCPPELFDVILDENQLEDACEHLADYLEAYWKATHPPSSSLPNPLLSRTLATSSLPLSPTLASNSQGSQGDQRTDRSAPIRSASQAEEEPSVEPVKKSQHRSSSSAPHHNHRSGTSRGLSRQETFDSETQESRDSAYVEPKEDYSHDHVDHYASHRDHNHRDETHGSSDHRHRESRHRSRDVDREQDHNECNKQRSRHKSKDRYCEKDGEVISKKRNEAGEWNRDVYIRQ
hCav1.2, sequence (P54289 25-946 partner limits assumed): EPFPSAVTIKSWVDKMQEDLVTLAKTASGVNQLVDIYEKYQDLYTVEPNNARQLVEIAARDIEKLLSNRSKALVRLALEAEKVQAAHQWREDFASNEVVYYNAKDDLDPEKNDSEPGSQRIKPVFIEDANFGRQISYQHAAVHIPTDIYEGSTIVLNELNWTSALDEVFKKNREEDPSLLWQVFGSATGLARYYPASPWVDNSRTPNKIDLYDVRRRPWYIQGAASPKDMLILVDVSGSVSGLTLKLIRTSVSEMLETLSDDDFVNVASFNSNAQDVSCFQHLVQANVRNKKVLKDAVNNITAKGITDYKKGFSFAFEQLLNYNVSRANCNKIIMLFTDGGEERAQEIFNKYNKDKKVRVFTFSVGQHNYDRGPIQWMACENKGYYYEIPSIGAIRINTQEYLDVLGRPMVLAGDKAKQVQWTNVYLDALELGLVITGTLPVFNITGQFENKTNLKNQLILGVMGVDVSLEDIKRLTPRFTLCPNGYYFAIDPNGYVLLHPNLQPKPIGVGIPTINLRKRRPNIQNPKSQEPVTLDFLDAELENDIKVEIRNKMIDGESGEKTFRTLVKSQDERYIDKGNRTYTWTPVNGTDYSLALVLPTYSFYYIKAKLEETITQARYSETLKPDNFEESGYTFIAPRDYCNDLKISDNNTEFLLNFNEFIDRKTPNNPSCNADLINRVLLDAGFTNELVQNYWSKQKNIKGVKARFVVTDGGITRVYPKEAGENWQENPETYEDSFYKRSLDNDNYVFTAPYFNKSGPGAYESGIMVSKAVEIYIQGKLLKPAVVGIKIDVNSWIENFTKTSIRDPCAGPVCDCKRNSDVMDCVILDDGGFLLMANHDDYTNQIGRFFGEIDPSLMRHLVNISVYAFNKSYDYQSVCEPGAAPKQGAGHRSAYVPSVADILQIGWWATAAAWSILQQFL
hCav1.2, sequence (P54289 947-1103 partner limits assumed): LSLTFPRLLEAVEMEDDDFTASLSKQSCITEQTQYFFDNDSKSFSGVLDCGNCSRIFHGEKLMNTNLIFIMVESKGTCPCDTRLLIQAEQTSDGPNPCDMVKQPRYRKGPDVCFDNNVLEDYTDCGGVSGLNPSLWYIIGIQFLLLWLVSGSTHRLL
In turn, `C[C@@H]1C(NC(=O)c2cc3c(F)cc(F)cc3[nH]2)CC2C[C@@H]1C2(C)C` (stereo partly shown) [JS-2-02] displayed an IC50 of over 10 µM.
Still for that read-out and setting: with `CC1(C)CCC(NC(=O)c2cc3c(Cl)cc(Cl)cc3[nH]2)CC1` [NITD-304] the figure was 2.01 µM.
Same read-out and setting: with `CC1(C)CCC(NC(=O)c2cc3c(F)cc(F)cc3[nH]2)CC1` [NITD-349] the figure was 9.53 µM.

Staying with this series, now noted: Table 3.
Compound `CC1(C)CCC(NC(=O)c2cc3c(Cl)cc(Cl)cc3[nH]2)CC1` [NITD-304] yielded an IC50 of 2.01 µM.
On the same count and under the same terms, under `CC1(C)CCC(NC(=O)c2cc3c(F)cc(F)cc3[nH]2)CC1` [NITD-349] stands 9.5 µM.

Another series concerns the target hNav1.5 Late (Homo sapiens, UniProt Q14524). Description: In vitro assessment of ion channels: hNav1.5 Late. Particulars: Table 2; read-out: hNav1.05 Late IC50. It counts as biochemical.
On to `C[C@@H]1C(NC(=O)c2cc3c(F)cc(F)cc3[nH]2)CC2C[C@@H]1C2(C)C` (stereo partly shown) [JS-2-02], for which the IC50 was over 10 µM.

The same series, now with this note: read-out: hNav1.05 Late IC50.
On to `CC1(C)CCC(NC(=O)c2cc3c(Cl)cc(Cl)cc3[nH]2)CC1` [NITD-304], for which the IC50 came out at 6.4 µM.
Same read-out and setting: with `CC1(C)CCC(NC(=O)c2cc3c(F)cc(F)cc3[nH]2)CC1` [NITD-349] the figure was over 10 µM.

Still in this series, the particulars now being: read-out: hNav1.5 Late IC50.
For the compound `CC1(C)CCC(NC(=O)c2cc3c(F)cc(F)cc3[nH]2)CC1` [NITD-349], the IC50 is over 10 µM.

For a further series, the system named is M. tb H37Rv. As to the kind of experiment: microbe, parasite or virus in culture. It counts as cell-based. Particulars: Mycobacterium tuberculosis, read-out: M. tb H37Rv: MIC-LORA.
Turning to `C[Si]1(C)CCC(NC(=O)c2cc3c(F)cc(F)cc3[nH]2)C1` (stereo not shown) [MPL-400, N-(1,1-dimethylsilolan-3-yl)-4,6-difluoro-1H-indole-2-carboxamide], the MIC is over 20 µg/mL.
Still for that read-out and setting: under `Cc1cc(F)c2cc(C(=O)NC3CC[Si](C)(C)CC3)[nH]c2c1` [MPL-470, N-(1,1-dimethylsilinan-4-yl)-4-fluoro-6-methyl-1H-indole-2-carboxamide] stands over 20 µg/mL.

The target in a further series is hNav1.5 Peak (Homo sapiens, UniProt Q14524). Description: In vitro assessment of ion channels: hNav1.5 Peak. It counts as biochemical.
Conditions: not given
On to `CC1(C)CCC(NC(=O)c2cc3c(Cl)cc(Cl)cc3[nH]2)CC1` [NITD-304], for which the IC50 was over 10 µM.
Still for that read-out and setting: under `CC1(C)CCC(NC(=O)c2cc3c(F)cc(F)cc3[nH]2)CC1` [NITD-349] stands over 10 µM.

The series is the same for the next values; noted with them: Table 2.
For `C[C@@H]1C(NC(=O)c2cc3c(F)cc(F)cc3[nH]2)CC2C[C@@H]1C2(C)C` (stereo partly shown) [JS-2-02], the IC50 was determined as 5.17 µM.

For the next series, the system named is Mycobacterium abscessus. Description: M. ab_ATCC MIC MHII. Particulars: Mycobacteroides abscessus; read-out: M. ab_ATCC: MIC MHII: MIC. It counts as cell-based. The source says: The procedure described in Franz 2017 was used to generate the data shown in column 5 of Table 4.
Regarding `C[Si]1(C)CCC(NC(=O)c2cc3c(F)cc(F)cc3[nH]2)C1` (stereo not shown) [MPL-400, N-(1,1-dimethylsilolan-3-yl)-4,6-difluoro-1H-indole-2-carboxamide], the MIC was over 64 µg/mL.
The same measure, in the same setting: with `Cc1cc(F)c2cc(C(=O)NC3CC[Si](C)(C)CC3)[nH]c2c1` [MPL-470, N-(1,1-dimethylsilinan-4-yl)-4-fluoro-6-methyl-1H-indole-2-carboxamide] the figure was over 64 µg/mL.

In the next series the target is hKCNQ1/MinK (Homo sapiens, UniProt P51787). Description: biochemical. Format: biochemical.
Conditions: not given
With `CC1(C)CCC(NC(=O)c2cc3c(Cl)cc(Cl)cc3[nH]2)CC1` [NITD-304], the IC50 turned out to be 0.71 µM.
Still for that read-out and setting: with `CC1(C)CCC(NC(=O)c2cc3c(F)cc(F)cc3[nH]2)CC1` [NITD-349] the figure was 0.058 µM.

Still in this series, the particulars now being: Table 2.
`C[C@@H]1C(NC(=O)c2cc3c(F)cc(F)cc3[nH]2)CC2C[C@@H]1C2(C)C` (stereo partly shown) [JS-2-02]: 6.2 µM corresponded to half-maximal inhibition (IC50).

One may read the IC50 as the concentration needed to halve the response being measured.
